According to US11072581B2, “N-acyl-arylsulfonamide derivatives as aminoacyl-tRNA synthetase inhibitors” (Oxford Drug Design Limited, priority 2015, dated 2021):

What was measured:
Format in all cases: biochemical
Details in all cases: i.a. = inactive at a concentration below 50 uM
[1] = target: T1, EcoVRS (valyl-tRNA synthetase from Escherichia coli) (Escherichia coli, UniProt P07118); assay: aaRS aminoacylation assay (ATP consumption), EcoVRS
T1 construct: made in house; host or cells: Escherichia coli M15

[2] = target: T2, SauVRS (valyl-tRNA synthetase from Staphylococcus aureus) (Staphylococcus aureus, UniProt Q2FXR8); assay: aaRS aminoacylation assay (ATP consumption), SauVRS
T2 construct: made in house; host or cells: Escherichia coli M15
T2 sequence (Q2FXR8 1-876): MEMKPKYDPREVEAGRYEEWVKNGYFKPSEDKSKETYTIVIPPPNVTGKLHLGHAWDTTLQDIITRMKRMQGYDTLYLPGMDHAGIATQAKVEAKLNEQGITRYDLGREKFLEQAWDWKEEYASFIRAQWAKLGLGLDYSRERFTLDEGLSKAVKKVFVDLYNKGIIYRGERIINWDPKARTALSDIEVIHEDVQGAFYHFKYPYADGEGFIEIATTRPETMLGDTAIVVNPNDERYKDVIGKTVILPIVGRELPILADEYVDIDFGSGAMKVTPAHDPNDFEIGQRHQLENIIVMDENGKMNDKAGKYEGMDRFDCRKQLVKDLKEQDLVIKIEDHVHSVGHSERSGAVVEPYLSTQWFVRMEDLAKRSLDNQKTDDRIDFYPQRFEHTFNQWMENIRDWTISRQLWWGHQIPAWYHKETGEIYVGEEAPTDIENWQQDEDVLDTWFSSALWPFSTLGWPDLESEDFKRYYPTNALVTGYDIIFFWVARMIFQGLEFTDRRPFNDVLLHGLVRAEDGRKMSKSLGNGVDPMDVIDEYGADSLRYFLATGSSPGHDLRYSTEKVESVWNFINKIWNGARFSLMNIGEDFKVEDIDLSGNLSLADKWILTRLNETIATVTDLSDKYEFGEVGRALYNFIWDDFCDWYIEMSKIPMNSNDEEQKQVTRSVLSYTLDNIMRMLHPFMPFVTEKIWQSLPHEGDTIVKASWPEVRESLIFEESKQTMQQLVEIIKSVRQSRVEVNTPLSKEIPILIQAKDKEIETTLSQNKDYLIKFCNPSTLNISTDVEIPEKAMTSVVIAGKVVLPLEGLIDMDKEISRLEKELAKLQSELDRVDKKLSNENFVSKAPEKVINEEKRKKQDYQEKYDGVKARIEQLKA

[3] = target: T3, SauIRS (isoleucyl-tRNA synthetase from Staphylococcus aureus) (Staphylococcus aureus, UniProt P41972); assay: aaRS aminoacylation assay (ATP consumption), SauIRS
T3 construct: made in house; host or cells: Escherichia coli M15
T3 sequence (P41972 1-917): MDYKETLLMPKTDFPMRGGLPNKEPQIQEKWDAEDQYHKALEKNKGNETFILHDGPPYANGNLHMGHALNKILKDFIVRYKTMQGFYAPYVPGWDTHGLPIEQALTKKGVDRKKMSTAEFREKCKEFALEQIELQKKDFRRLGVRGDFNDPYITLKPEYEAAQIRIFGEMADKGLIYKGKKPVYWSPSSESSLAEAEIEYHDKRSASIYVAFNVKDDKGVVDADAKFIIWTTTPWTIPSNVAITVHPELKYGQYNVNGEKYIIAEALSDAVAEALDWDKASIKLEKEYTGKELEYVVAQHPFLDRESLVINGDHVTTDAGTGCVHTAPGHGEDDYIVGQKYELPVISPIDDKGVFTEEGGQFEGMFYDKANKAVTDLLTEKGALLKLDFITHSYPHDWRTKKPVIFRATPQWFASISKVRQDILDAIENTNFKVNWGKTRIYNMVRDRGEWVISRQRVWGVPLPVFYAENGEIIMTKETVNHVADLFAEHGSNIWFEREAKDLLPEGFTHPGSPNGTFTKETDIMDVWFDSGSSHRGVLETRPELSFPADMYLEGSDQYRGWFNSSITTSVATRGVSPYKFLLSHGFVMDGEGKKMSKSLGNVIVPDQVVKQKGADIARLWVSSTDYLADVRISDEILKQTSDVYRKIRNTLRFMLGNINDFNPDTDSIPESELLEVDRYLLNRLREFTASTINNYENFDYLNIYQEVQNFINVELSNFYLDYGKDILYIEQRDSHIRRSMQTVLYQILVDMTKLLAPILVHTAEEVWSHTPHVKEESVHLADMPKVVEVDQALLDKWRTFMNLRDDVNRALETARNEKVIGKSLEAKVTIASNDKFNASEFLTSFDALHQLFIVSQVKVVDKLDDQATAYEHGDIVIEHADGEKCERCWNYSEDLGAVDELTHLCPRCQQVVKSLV
Description: The compounds have been tested for antibacterial activity in vitro as aminoacyl-tRNA synthetases (aaRS) inhibitors following the following process.
Leucyl-, valyl- and isoleucyl-tRNA synthetases (LRS, VRS and IRS, respectively) from Escherichia coli (Eco) and Staphylococcus aureus (Sau).
Escherichia coli M15 cells transformed with plasmid pQE-60, or pQE-70, containing the open-reading frame sequence of one targeted aaRS were induced with 1 mM IPTG (Isopropyl β-D-1-thiogalactopyranoside) for 3 h at 37° C. Bacterial cells were harvested and lysed with 20 mM NaH2PO4 (pH 8.0), 200 mM NaCl, 10 mM imidazole and protease inhibitor cocktail (Roche). Pathogenic aaRS was purified by nickel affinity standard chromatography. Protein concentration was determined by spectrophotometry.
tRNA^Leu, tRNA^Val and tRNA^Ile from E. coli and S. aureus were transcribed in vitro for 4 h at 37° C. using T7 RNA polymerase. Transcription reaction contained 40 mM Tris-HCl (pH 8.0), 22 mM MgCl2, 1 mM spermidine, 5 mM DTT, 0.01% Triton X-100, 4 mM GTP, 4 mM ATP, 4 mM UTP, 4 mM CTP, 16 mM GMP, […] T7 RNA polymerase and 150 μg BstNI digested plasmid. Once finished, the reaction was applied on a 6% polyacrylamide-8 M urea denaturing gel to purify the transcribed tRNA and discard any impurities. Purified tRNA was quantified with Nanodrop 2000 (Thermo Scientific).
The aminoacylation reaction catalyzed by aminoacyl-tRNA synthetases (aaRS) takes place in two steps. In the first step, aaRS activates its cognate amino acid with ATP; and in the second step the activated amino acid is loaded to its corresponding tRNA. This reaction can be summarized as follows: ARS+aa+ATP=ARS-aa-AMP+PPi ARS-aa-AMP+tRNA=aa-tRNA+AMP+ARS [2] (ARS, Aminoacyl-tRNA synthetase; aa, amino acid; ARS-aa-AMP, enzyme-bound to aminoacyl-adenylate; aa-tRNA, aminoacyl-tRNA).
The activity of the pathogenic aaRSs was monitored by measuring the ATP consumption rate, since this consumption is directly proportional to the activity of the aaRS. If the tested compound, at a single point concentration of 50 μM, is inhibiting the aminoacylation reaction, there is a decrease in the ATP consumption, compared to the control reaction without compound, allowing the calculation of an inhibition ratio.
When the inhibition ratio for a given compound was above 80%, IC50 determination was performed with the same enzymatic assay (using the commercial kit Kinase RR from BioThema AB, Sweden) in the presence of serial dilutions of inhibitor. Known inhibitors of LRS, VRS or IRS were used as a positive control of the assay. The IC50 was calculated based on nonlinear regression analysis.

T1 sequence (P07118 whole entry): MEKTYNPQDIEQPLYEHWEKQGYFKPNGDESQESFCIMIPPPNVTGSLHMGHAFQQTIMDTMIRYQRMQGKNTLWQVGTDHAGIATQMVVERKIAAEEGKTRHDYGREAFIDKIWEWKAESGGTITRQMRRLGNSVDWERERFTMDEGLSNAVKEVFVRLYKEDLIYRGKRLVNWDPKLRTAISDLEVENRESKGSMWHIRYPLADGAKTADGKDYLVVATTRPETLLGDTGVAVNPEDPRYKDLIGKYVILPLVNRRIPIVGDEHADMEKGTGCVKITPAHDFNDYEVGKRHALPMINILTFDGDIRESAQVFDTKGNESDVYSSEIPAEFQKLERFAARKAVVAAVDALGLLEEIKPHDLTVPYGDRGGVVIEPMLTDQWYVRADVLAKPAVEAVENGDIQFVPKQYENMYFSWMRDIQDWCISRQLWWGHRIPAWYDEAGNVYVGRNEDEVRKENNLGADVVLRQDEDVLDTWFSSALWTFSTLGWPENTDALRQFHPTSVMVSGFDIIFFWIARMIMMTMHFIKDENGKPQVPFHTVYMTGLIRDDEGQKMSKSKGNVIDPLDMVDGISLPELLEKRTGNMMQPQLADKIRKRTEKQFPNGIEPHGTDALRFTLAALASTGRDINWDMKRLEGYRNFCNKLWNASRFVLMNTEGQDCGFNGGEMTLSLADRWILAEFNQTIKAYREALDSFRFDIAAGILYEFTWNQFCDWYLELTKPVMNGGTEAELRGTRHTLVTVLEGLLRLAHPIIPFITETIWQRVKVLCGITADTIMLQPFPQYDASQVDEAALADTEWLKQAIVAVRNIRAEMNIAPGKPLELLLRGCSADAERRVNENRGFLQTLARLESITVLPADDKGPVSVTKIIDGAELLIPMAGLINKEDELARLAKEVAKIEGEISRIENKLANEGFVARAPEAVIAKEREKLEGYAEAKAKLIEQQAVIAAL

CC(C)C[C@H](N)C(=O)NS(=O)(=O)c1cccc(-c2cccc(N)n2)c1 [Compound 5.44]
i.a.: IC50 EcoVRS [1] | IC50 SauVRS [2] | IC50 SauIRS [3]

CC(C)C[C@H](N)C(=O)NS(=O)(=O)c1cccc(-c2cc(N)nc(N)n2)c1 [Compound 5.45]
i.a.: IC50 EcoVRS [1] | IC50 SauVRS [2] | IC50 SauIRS [3]

CC(C)C[C@H](N)C(=O)NS(=O)(=O)c1cccc(-c2cc(N)ncn2)c1 [Compound 5.46]
i.a.: IC50 EcoVRS [1] | IC50 SauVRS [2] | IC50 SauIRS [3]

CCc1cc(-c2cccc(S(=O)(=O)NC(=O)[C@@H](N)CC(C)C)c2)nc(N)n1 [Compound 5.47]
i.a.: IC50 EcoVRS [1] | IC50 SauVRS [2] | IC50 SauIRS [3]

CC(C)C[C@H](N)C(=O)NS(=O)(=O)c1cccc(-c2ncnc(N)n2)c1 [Compound 5.48]
i.a.: IC50 EcoVRS [1] | IC50 SauVRS [2] | IC50 SauIRS [3]

CC(C)C[C@H](N)C(=O)NS(=O)(=O)c1cccc(-c2ccnc(Cl)n2)c1 [Compound 5.49]
i.a.: IC50 EcoVRS [1] | IC50 SauVRS [2] | IC50 SauIRS [3]

CC(C)C[C@H](N)C(=O)NS(=O)(=O)c1cccc(-c2ccnc(O)n2)c1 [Compound 5.50]
i.a.: IC50 EcoVRS [1] | IC50 SauVRS [2] | IC50 SauIRS [3]
